According to patent US20260062422A1 (Halda Therapeutics OpCo, Inc., priority 2022, published 2026):

Key:
[1] = tested on: T-Rex 293 cell line SC3 cells lacking increased expression of androgen receptor protein; assay: Cellular growth inhibition, T-Rex 293 SC3 cells without doxycycline, CellTiter-Glo; type: cell-based; conditions: T-Rex 293 SC3 cells not exposed to doxycycline; 72 hours; CellTiter-Glo 2.0
Outline: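 GI50 came from a four-parameter fit of CellTiter-Glo 2.0 luminescence after 72 h compound exposure (0.5% DMSO, 37 °C), dosing 24 h post-seeding. SC3 clone cells (2500/well), transfected with wild-type androgen receptor, grew in charcoal-stripped serum medium lacking phenol red, induced with 10 ng/mL doxycycline or left uninduced.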

[2] = Cellular growth inhibition, T-Rex 293 SC cells with doxycycline (progesterone receptor isoform B induced), Example 45; type: cell-based; conditions: progesterone receptor isoform B induced with 10 ng/mL doxycycline, 72 hours, CellTiter-Glo 2.0, Table 11

Structure (SMILES)	GI50 [1] [nM]	GI50 [2] [nM]
Cc1sc2c(c1C)C(c1ccc(CC3CC4(CCN(c5ccc(C(=O)N[C@H]6C(C)(C)[C@H](Oc7ccc(C#N)c(Cl)c7)C6(C)C)cn5)CC4)C3)cc1)=N[C@@H](Cc1ncco1)c1nnc(C)n1-2 [Compound I-143]	< 500	< 500
Cc1sc2c(c1C)C(c1ccc(N3CC(N4CCN(c5ncc(C(=O)N[C@H]6C(C)(C)[C@H](Oc7ccc(C#N)c(Cl)c7)C6(C)C)cn5)CC4)C3)cc1)=NC(Cc1ncco1)c1nnc(C)n1-2 (stereo partly shown) [Compound I-208]	< 500	< 500
